Laboratory results from ChEMBL document CHEMBL4020831, “Discovery of GDC-0853: A Potent, Selective, and Noncovalent Bruton's Tyrosine Kinase Inhibitor in Early Clinical Development” (J Med Chem, 2018).
≈ marks a conversion by molar mass, not a printed value. Calls of active or inactive are those of the source. The rule behind the calls is not given here.

Experiments:
[1] = Aqueous solubility of the compound in 0.1 N HCl; assay type: physicochemical; conditions: buffer
[2] = Volume of distribution in rat at 0.2 mg/kg, iv or 1 mg/kg, po administered as single dose via cassette dosing; assay type: ADME, organism-based; conditions: in vivo
[3] = Half life in rat at 0.2 mg/kg, iv or 1 mg/kg, po administered as single dose via cassette dosing; assay type: ADME, organism-based; conditions: in vivo
[4] = test system: Salmonella typhimurium; assay: Genotoxicity in Salmonella typhimurium TA97a after 48 to 72 hrs in presence of liver S9 fraction by Ames test; assay type: toxicity; conditions: salmonella enterica subsp. enterica serovar typhimurium
[5] = test system: Salmonella typhimurium; assay: Genotoxicity in Salmonella typhimurium TA98 after 48 to 72 hrs in absence of liver S9 fraction by Ames test; assay type: toxicity; conditions: salmonella enterica subsp. enterica serovar typhimurium
[6] = target: BLK (Homo sapiens, UniProt P51451); assay: Inhibition of recombinant human full length His-tagged BLK expressed in baculovirus at 1 uM by Z'-LYTE assay
BLK, sequence (P51451 whole entry): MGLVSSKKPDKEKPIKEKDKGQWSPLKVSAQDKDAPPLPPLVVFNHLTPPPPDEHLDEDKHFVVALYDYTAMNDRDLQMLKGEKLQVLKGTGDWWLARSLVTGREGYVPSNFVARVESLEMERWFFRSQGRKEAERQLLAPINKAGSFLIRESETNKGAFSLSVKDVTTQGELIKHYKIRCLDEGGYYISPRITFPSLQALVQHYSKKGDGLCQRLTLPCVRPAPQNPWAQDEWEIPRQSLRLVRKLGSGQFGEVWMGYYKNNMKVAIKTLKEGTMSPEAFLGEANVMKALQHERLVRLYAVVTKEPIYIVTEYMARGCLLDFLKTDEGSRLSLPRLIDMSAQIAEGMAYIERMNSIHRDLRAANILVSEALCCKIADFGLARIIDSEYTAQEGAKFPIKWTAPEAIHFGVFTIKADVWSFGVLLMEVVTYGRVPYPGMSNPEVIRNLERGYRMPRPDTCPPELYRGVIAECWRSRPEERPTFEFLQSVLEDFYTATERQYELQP

[7] = target: T1, JAK3 (Homo sapiens, UniProt P52333); assay: Inhibition of recombinant human catalytic GST-tagged JAK3 expressed in baculovirus at 1 uM by Z'-LYTE assay
T1 sequence (P52333 whole entry): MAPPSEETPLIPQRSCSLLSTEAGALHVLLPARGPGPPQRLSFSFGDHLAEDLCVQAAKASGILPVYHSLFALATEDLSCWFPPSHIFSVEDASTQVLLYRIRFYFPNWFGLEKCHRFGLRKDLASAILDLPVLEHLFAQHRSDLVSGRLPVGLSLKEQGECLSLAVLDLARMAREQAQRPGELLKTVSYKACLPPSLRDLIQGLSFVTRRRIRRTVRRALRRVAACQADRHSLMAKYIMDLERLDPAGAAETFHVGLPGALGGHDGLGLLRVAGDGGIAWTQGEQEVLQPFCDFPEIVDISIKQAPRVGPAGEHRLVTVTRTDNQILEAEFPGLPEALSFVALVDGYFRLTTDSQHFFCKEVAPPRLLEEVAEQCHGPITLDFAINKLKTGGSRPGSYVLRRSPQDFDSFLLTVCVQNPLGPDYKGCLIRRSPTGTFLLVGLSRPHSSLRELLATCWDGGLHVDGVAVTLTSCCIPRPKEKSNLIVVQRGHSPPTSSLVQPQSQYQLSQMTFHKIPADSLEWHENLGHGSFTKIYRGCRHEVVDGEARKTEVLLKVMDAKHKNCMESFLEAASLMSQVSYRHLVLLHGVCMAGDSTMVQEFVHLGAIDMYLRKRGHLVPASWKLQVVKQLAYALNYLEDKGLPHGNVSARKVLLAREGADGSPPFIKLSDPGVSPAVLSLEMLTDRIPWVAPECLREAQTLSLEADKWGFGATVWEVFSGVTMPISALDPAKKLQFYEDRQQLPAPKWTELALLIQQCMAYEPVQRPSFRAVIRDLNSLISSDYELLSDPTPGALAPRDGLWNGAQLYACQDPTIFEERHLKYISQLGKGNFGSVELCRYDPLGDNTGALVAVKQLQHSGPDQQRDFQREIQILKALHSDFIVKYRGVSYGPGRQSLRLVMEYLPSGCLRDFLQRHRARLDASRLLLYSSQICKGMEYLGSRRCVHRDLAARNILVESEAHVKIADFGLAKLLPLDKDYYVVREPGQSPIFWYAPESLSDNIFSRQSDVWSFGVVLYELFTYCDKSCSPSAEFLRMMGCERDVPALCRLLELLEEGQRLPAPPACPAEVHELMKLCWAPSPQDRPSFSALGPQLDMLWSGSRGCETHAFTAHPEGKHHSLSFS

[8] = target: EGFR (Homo sapiens, UniProt P00533); assay: Inhibition of recombinant human cytoplasmic GST-tagged EGFR expressed in baculovirus at 1 uM by Z'-LYTE assay
EGFR, sequence (P00533 whole entry): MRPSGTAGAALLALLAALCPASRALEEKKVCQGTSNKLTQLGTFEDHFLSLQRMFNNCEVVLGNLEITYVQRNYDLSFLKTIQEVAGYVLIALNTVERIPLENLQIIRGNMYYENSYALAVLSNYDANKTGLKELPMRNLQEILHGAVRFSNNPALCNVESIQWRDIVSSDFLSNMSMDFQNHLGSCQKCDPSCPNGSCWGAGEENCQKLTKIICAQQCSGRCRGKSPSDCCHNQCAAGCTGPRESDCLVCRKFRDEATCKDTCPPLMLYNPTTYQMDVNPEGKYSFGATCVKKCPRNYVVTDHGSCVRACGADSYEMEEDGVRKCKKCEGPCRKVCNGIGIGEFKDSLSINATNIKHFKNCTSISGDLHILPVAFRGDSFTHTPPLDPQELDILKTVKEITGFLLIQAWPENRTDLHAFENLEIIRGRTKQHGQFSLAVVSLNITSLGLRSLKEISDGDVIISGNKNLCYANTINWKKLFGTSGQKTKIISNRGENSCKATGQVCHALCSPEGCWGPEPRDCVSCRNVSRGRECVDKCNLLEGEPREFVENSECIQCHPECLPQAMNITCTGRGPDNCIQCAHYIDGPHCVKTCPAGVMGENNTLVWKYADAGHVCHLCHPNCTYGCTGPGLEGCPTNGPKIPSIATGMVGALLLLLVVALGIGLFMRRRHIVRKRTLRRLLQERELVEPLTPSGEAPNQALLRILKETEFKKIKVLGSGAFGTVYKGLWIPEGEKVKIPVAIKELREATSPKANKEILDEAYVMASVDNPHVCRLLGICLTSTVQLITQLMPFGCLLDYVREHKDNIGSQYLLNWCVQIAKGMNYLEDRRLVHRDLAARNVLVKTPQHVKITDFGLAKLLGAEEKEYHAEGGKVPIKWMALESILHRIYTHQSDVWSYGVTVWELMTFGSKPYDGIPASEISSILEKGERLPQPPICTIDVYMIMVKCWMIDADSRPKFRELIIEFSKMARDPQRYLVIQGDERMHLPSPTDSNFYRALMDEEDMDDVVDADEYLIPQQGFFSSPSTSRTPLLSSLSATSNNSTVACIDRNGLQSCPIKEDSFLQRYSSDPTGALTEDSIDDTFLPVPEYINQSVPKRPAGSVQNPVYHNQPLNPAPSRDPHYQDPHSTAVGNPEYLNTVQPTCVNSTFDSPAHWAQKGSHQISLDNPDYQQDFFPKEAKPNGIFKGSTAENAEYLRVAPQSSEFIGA

[9] = target: ERBB4 (Homo sapiens, UniProt Q15303); assay: Inhibition of recombinant human cytoplasmic GST-tagged ERBB4 expressed in baculovirus at 1 uM by Z'-LYTE assay
ERBB4, sequence (Q15303 whole entry): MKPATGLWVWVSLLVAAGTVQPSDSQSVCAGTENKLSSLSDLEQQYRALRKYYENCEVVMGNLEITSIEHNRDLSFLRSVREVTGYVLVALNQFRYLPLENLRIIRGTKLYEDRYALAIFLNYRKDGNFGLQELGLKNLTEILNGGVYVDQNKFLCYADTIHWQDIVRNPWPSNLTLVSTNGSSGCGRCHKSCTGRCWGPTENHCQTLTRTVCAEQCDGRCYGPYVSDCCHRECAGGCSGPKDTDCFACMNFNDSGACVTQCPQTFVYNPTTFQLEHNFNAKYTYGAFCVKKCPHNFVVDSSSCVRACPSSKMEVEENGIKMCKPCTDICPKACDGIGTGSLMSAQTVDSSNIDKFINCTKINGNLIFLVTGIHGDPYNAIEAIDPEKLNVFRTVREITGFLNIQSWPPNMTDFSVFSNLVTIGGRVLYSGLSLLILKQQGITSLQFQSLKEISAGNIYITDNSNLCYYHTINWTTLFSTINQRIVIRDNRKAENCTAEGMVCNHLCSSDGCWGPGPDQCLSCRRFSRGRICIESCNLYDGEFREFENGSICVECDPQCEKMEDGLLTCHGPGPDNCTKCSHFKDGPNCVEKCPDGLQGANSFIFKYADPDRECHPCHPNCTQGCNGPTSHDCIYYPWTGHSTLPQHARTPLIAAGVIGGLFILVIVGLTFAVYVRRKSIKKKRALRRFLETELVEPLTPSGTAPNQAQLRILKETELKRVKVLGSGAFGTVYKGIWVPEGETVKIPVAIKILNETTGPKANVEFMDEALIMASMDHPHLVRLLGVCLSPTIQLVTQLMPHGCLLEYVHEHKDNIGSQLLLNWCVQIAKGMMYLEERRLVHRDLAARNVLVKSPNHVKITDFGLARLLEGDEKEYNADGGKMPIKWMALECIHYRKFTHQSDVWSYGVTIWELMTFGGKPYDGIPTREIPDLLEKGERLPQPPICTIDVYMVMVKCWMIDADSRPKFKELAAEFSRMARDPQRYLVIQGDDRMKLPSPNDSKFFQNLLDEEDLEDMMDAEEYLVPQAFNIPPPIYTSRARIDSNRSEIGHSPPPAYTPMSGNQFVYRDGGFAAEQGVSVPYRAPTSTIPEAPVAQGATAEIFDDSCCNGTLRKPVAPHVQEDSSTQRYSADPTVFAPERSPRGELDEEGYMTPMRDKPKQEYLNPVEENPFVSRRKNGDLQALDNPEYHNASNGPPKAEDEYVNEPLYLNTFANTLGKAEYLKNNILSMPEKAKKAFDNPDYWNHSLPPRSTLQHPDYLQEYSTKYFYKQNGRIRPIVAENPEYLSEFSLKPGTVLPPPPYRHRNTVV

[10] = target: T2, TEC (Homo sapiens, UniProt P42680); assay: Inhibition of recombinant human cytoplasmic full length His-tagged TEC expressed in baculovirus at 1 uM by Z'-LYTE assay
T2 sequence (P42680 whole entry): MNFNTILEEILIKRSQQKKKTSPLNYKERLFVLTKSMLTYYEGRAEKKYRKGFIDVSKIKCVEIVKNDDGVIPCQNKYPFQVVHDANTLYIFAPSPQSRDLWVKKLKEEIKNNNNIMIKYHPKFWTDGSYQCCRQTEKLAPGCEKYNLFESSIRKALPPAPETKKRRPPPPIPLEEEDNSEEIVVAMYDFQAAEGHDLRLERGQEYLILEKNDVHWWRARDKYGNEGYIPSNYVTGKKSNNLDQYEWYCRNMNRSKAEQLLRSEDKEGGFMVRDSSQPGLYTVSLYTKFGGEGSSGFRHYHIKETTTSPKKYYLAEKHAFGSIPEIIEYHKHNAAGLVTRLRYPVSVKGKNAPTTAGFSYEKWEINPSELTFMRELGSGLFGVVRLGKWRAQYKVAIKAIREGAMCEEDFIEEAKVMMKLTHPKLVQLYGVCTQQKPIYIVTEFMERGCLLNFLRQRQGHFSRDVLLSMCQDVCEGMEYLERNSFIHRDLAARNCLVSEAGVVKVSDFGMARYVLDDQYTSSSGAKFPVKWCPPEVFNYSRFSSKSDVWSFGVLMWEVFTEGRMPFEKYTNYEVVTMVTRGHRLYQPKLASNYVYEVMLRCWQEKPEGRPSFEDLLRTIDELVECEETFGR

[11] = test system: Rattus norvegicus; assay: Antiinflammatory activity in Lewis rat collagen-induced arthritis model assessed as reduction in ankle diameter AUC at 2 mg/kg, po administered bid for 16 days relative to control; assay type: functional; conditions: 384 h
[12] = test system: Rattus norvegicus; assay: Time at which plasma concentration stays above in vitro IC70 for BTK autophosphorylation at Y223 in rat whole blood in Lewis rat collagen-induced arthritis model at 1 mg/kg, po bid measured during 24 hrs dosing
[13] = test system: Rattus norvegicus; assay: Time at which plasma concentration stays above IC70 for BTK autophosphorylation at Y223 in rat whole blood in Lewis rat collagen-induced arthritis model at 0.5 mg/kg, po qd measured during 24 hrs dosing
[14] = test system: Rattus norvegicus; assay: Antiinflammatory activity in Lewis rat collagen-induced arthritis model assessed as reduction in ankle pannus at 0.06 to 16 mg/kg, po administered qd for 16 days; assay type: functional, organism-based
[15] = test system: Rattus norvegicus; assay: Antiinflammatory activity in Lewis rat collagen-induced arthritis model assessed as reduction in ankle cartilage damage at 0.06 to 16 mg/kg, po administered qd for 16 days; assay type: functional, organism-based
[16] = test system: Rattus norvegicus; assay: Antiinflammatory activity in Lewis rat collagen-induced arthritis model assessed as reduction in bone resorption at 0.06 to 16 mg/kg, po administered qd for 16 days; assay type: functional, organism-based
[17] = test system: Rattus norvegicus; assay: Antiinflammatory activity in Lewis rat collagen-induced arthritis model assessed as reduction in ankle cartilage damage at 0.125 to 2 mg/kg, po administered bid for 16 days; assay type: functional, organism-based
[18] = Clearance in human hepatocytes at 1 uM incubated up to 60 mins by LC-MS/MS method; assay type: ADME, cell-based, Hepatocyte

C[C@H]1CN(C2COC2)CCN1c1ccc(Nc2cc(-c3ccnc(N4CCn5c(cc6c5CC(C)(C)C6)C4=O)c3CO)cn(C)c2=O)nc1 [FENEBRUTINIB]
solubility [1]: 35.9 mg/mL (≈ 54 mM)
Vd [2]: 5.42 L/kg
half-life [3]: 2.2 h
Activity [4]: Non-Toxic
Activity [5]: Non-Toxic
inhibition at 1 µM [6]: 6%
inhibition at 1 µM [7]: 5%
inhibition at 1 µM [8]: -7%
inhibition at 1 µM [9]: 1%
inhibition at 1 µM [10]: 23%
inhibition in vivo at 2 mg/kg [11]: 96%
Time [12]: 12 h
Time [13]: 12 h
Activity [14]: Active
Activity [15]: Active
Activity [16]: Active
Activity [17]: Active
CLhep predicted at 1 µM [18]: 7.6 mL/min/kg
